Experimental data: patent US20260232745A1, “INHIBITION OF METHANE PRODUCTION IN RUMINANTS” (Loam Bio Pty Ltd, priority 2023, published 2026)
Like-named read-outs stand apart in the source and are kept apart here.

Legend:
[1] = tested on: Curvularia sp. 4388 (NMI Accession No. V22/011149) VHPO, culture supernatant; conditions: MCD assay; for Km: pH 5.5, 25° C.
Procedure: (§1) Kinetic parameters of VHPOs were determined using the monochlorodimedone (MCD) (2-chloro-5,5-dimethyl-1,3-dimedon) assay. The assay was carried out in a 200 μL reaction volume using Greiner UV-Star® 96 well plates. MCD conversion was spectrophotometrically monitored at 290 nm (F=20/mM·cm) using a CLARIOstar® Plus microplate reader (BMG labtech, Germany) at 25° C. […] The buffers were acetate buffer for pH 4-5.5, MES buffer for pH 6 and 6.5, and HEPES buffer for pH 7-8. The MCD mixture was prepared and aliquoted to 96-well plates, followed by enzyme addition (10 μL of appropriate dilution). […] Stock solutions were prepared in advance for KBr (0.25M), Na3VO4 (25 mM), MCD (0.5 mM, adjusted pH to 6), and buffers (1M).
(§2) The absorbance values were plotted against time. For each curve, the slope of linear regression was determined as the initial velocity (Abs/min) of the enzyme activity.

[2] = tested on: Curvularia sp. 4388 (NMI Accession No. V22/011149) VHPO, purified, SEQ ID NO: 2; conditions: MCD assay; for Km: pH 5.5, 25° C.
Procedure: as §1, §2
(§3) The following enzyme concentrations were used in the MCD assay: • For Curvularia sp.

[3] = tested on: Curvularia spicifera US-188 (ATCC PTA-127510) VHPO, purified, SEQ ID NO: 3; conditions: MCD assay; for Ki: pH 6.5, substrate inhibition model; for Km: pH 6.5, 25° C.
Procedure: as §1, §2, §3

[4] = tested on: Curvularia pseudobrachyspora US-215 (ATCC PTA-127509) VHPO, purified, SEQ ID NO: 5; conditions: MCD assay; for Ki: pH 5.5, substrate inhibition model; for Km: pH 5.5, 25° C.
Procedure: as §1, §2, §3

[5] = tested on: Curvularia protuberata US-1111 (ATCC PTA-127607) VHPO, purified, SEQ ID NO: 7; conditions: MCD assay; for Km: pH 5.5, 25° C.
Procedure: as §1, §2, §3

[6] = tested on: methane production; conditions: among the antimethanogenic compounds found in A. taxiformis; cited from earlier work
[7] = tested on: methyl-coenzyme M reductase (MCR); conditions: background; cited from earlier work
[8] = tested on: VHPO expressed in Curvularia sp. 4388 (SEQ ID NO: 2); experiment: Enzyme reaction via VHPO mediated pathway, bromoform by GCMS; type: biochemical; conditions: VHPO (Curvularia sp. AU-4388 supernatant), KBr, H2O2, vanadate, 24 hours at room temperature
[9] = MCD assay, pH profile of VHPO activity; type: biochemical; conditions: for Optimal pH: first value of the cell: pH at which the kinetic parameters were determined; for optimal pH of enzyme activity: typical MCD assay, 25° C., value in brackets in Table 8, footnotes and text
[10] = pH 5.5, final 20-fold dilution of supernatant
[11] = read-out: KM (H2O2), H2O2 varied
[12] = pH 5.5, final 200-fold dilution
[13] = read-out: KI (Br-), pH 5.5, substrate inhibition model

OO [H2O2, hydrogen peroxide]
Vmax (H2O2) [1, 10]: 0.466 [Abs/min] | Km [1, 11]: 297 µM | Vmax (H2O2) [2, 12]: 0.378 [Abs/min] | Km [2, 11]: 645 µM | Vmax (H2O2) ([3]; pH 6.5, final 20-fold dilution): 0.357 [Abs/min] | Ki ([3]; read-out: KI (H2O2)): 2.76 mM | Km [3, 11]: 400 µM | Vmax (H2O2) ([4]; pH 5.5, final 20-fold dilution): 0.123 [Abs/min] | Ki ([4]; read-out: KI (H2O2)): 31.3 mM | Km [4, 11]: 3300 µM | Vmax (H2O2) ([5]; pH 5.5, final 20-fold dilution): 0.0103 [Abs/min] | Km [5, 11]: 611 µM

BrC(Br)Br [Bromoform, bromoform]
activity at inhibiting methane production [6]: highest activity

BrC(Br)Br [bromoform]
inhibition of methyl-coenzyme M reductase (MCR) [7]: competitive inhibitor

CC1(C)CC(=O)CC(=O)C1 [dimedone]
GCMS peak for bromoform [8]: significant peak

ClC(Br)Br [dibromochloromethane]
activity at inhibiting methane production [6]: highest activity

[Br-].[K+] [Br-, bromide]
Vmax (Br-) [1, 10]: 0.964 [Abs/min] | Ki [1, 13]: 1.33 mM | Km ([1]; read-out: KM (Br-), KBr varied): 155 µM | Vmax (Br-) [2, 12]: 0.395 [Abs/min] | Ki [2, 13]: 2.9 mM | Km ([2]; read-out: KM (Br-), KBr varied): 68 µM | Vmax (Br-) ([3]; pH 6.5, final 20-fold dilution): 0.356[Abs/min] | Ki ([3]; read-out: KI (Br-)): 17.5 mM | Km ([3]; read-out: KM (Br-), KBr varied): 125 µM | Vmax (Br-) ([4]; pH 5.5, final 20-fold dilution): 0.039 [Abs/min] | Ki ([4]; read-out: KI (Br-)): 9.35 mM | Km ([4]; read-out: KM (Br-), KBr varied): 73 µM | Vmax (Br-) ([5]; pH 5.5, final 20-fold dilution): 0.0083 [Abs/min] | Ki [5, 13]: 33.6 mM | Km ([5]; read-out: KM (Br-), KBr varied): 38.7 µM

B1: Purified VHPO (SEQ ID NO: 7): VHPO of Curvularia protuberata US-1111; purified from recombinant P. pastoris (protein)
chain: MGSVTPIPLPKIDEPEEYNTNYILFWNYVGLELNRVTHTVGGPLTGPPLSARALGMLHLAVHDAYFSICPPTDFTTFLSPDAENAAYRLPSTNGANDARQAVAGAALKMLTSLYMKPIEQPNPNPSANISDNAYAQLALVLDRSAMEAPGGIDRESASFMFGEAVADVFFALLNDPRGASQEGYHPTPGRYKFDDEPTHPVVLIPVDPNNPNGPKKPFRQYHAPFYGKTTKRFATQSEHFLADPPGLRSNADETAEYDDAIRVAIAMGGAQALNSTKRSPWQTAQGLYWAYDGSNLIGTPPRFYNQIVRRIAVTYKKEEDIANSEVNNADFARLFALVDVACTDAGIFSWKEKWEFEFWRPLSGVRDDGRPDHGDPFWLTLGAPATNTNDIPFKPPFPAYPSGHATFGGAVFQMVRRYYNGRVGTWKDDEPDNIAIDMMISEELNGLNRDLRQPYDPTAPIEDQPGIVRTRIVRHFDSAWELMFENAISRIFLGVHWRFDAAAARDILIPTTTKDVYAVDNNGATVFQNVEDIRYTTKGTREDREGLFPIGGVPLGIEIANEIFENGLKPTPPEIQPMPQETPAQKPVKGMWQEEQVPVVEEAP
Optimal pH [9]: 5.5 | optimal pH of enzyme activity [9]: 5 | optimal pH of enzyme activity ([9]; listed as SEQ ID NO: 7): 5

B2: Purified VHPO (SEQ ID NO: 3): VHPO of Curvularia spicifera US-188; purified from recombinant P. pastoris (protein)
chain: MGSVTPIPIPRIDEPEEYNTNYILFWNHVGLELNRITHTVGGPLTGPPLSARALGMLHLAIHDAYFSICPPSDFTTFLSPDAENVAYRLPSLNGADDARQAVAGAALKMLSLLYMKPVEQPNPNPGANISDNAYAQLGLVLDRSVLKAPGGVDQESASFMFGEAVADVFFALLNDPRGASQEGYHPTLGRYKFDDEPTHPVVLIPVDPNNPNGPKKPFRQYHAPFYGKTTKRFATQSEHFLADPPGLRSNADETAEYDDSIRVAIAMGGAQGLNSTKRSPWQTAQGLYWAYDGSNLIGTPPRFYNQIVRRIAVTYKKEEDLANSEVNNADFARLFALVNVACTDAGIFSWKEKWEFEFWRPLSGVRDDGRPDHGDPFWLTLGAPATNTNDIPFKPPFPAYPSGHATFGGAVFQMVRRYYNGRVGTWKDDEPDNIAIDMMISEELNGLNRDLRQPYDPTAPIEDQPGIVRTRIVRHFDSAWEMMFENAISRIFLGVHWRFDAAAARDILIPTTTKDVYAVDNNGATVFQNVEDVRYSTKGTREGREGLFPIGGVPLGIEIADEIFNNGLRPTPPELQPMPQETPVQKPVEGMWEEEQAPIVNEAP
Optimal pH [9]: 6.5 | optimal pH of enzyme activity [9]: 7

B3: Purified VHPO (SEQ ID NO: 5): VHPO of Curvularia pseudobrachyspora US-215; purified from recombinant P. pastoris (protein)
chain: MGSVIPIPLPKIDEPEEYNTNYVLFWNNVGLELNRVTHTVGGPLTGPPLSARALGMLHLAIHDAYFSIYPPTDFTTFLSPDAENAAYRLPSLNGANDARQAVAGAALKMLSSLYMKPDSSSGGSISDNAYAQLALVIDRSVLKAPGGVDRESASFVFGEAVADVFFALLNDPRGASQEGYHPTPGRYKFDDEPTHPVVLVPVDPNNPNGPKKPFRQYHAPFYGKTTKRFATQTEHFLADPPGLRSNADETAEYDDSIRVAVAMGGAQGLNSTKRSPWQTAQGLFWAYDGSNLVGTPPRFYNQIVRRIAVTYKKEEDLANSEVNNADFARLFALVDVACTDAGIFSWKEKWEYEFWRPLSGVRDDGRPDHGDPFWLTLGAPATNTNDIPFKPPFPAYPSGHATFGGAVFQMVRRYYNGRVGTWKDDEPDNIAIDMVISEELNGLNRDLRQPYDPTAPIEDQPGIVRTRIVRHFDSAWEMMFENAISRIFLGVHWRFDAAAARDILIPTTTKDVYAVDNNGATVFQNVEDIRYSTKGTREDREGLFPIGGVPLGIEIADEIFNNGLRPTPPELQPMPQETPVQKPIGQQLVQGLWHDEEGQVPVVKEAP
Optimal pH [9]: pH 5.5 | optimal pH of enzyme activity [9]: 5.5

B4: Purified VHPO (SEQ ID NO: 2): VHPO of Curvularia sp. 4388, reference VHPO; purified from recombinant P. pastoris (protein)
chain: MGSITPIPLPKIDEPEEYNTNYILFWNHVGLELNRVTHTVGGPLTGPPLSARALGMLHLAIHDAYFSIYPPTDFSTFLSPNAENAAYRLPSPNGANDARQAVAGAALKMLTSLYMKPVETPNPNPGANISDNAYAQLALVIDRSVLKAPGGVDRESASFMFGETVADVFFALLNDPRGASQEGYHPTPGRYKFDDEPTHPVVLIPVDPNNPNGPKKPFRQYHAPFYGKTTKRFATQSEHFLADPPGLRSNADETAEYDDAIRVAIAMGGAQALNSTKRSPWQTAQGLFWAYDGSNLIGTPPRFYNQIVRRIAVTYKKEEDLANSEVNNADFARLFALVDVACTDAGIFSWKEKWEYEFWRPLSGVRDDGRPDHGDPFWLTLGAPATNTNDIPFKPPFPAYPSGHATFGGAVFQMVRRYYNGRVGTWKDDEPDNIAIDMMISEELNGLNRDLRQPYDPTAPIEDQPGIVRTRIVRHFDSAWELMFENAISRIFLGVHWRFDAAAARDILIPTTTKDVYAVDNNGATVFQNVEDIRYTTKGTREDREGLFPIGGVPLGIEIADEIFNNGLKPTPPELQPMPQQTPVQKPVGQQPVQGMWAEEQAPVIKEAP
Optimal pH [9]: pH 5.5 | optimal pH of enzyme activity [9]: 5.5
